Laboratory results reported in ChEMBL document CHEMBL2151027, “BACE Inhibitors: Potential Treatment of Alzheimer's Disease, Dementia, and Related Neurodegenerative Disorders (B): 3-Amino-4-fluoro-1H-isoindol Derivatives: Patent Highlight” (ACS Med Chem Lett, 2012).

Tests used:
Beta-secretase 1 [1] = biological target: T1, Beta-secretase 1 (Homo sapiens, UniProt P56817); test: Inhibition of BACE1 by diluted TR-FRET assay
Beta-secretase 1 [2] = biological target: T1, Beta-secretase 1; test: Inhibition of BACE1 by secreted AAPbeta release assay

T1 sequence (P56817 whole entry): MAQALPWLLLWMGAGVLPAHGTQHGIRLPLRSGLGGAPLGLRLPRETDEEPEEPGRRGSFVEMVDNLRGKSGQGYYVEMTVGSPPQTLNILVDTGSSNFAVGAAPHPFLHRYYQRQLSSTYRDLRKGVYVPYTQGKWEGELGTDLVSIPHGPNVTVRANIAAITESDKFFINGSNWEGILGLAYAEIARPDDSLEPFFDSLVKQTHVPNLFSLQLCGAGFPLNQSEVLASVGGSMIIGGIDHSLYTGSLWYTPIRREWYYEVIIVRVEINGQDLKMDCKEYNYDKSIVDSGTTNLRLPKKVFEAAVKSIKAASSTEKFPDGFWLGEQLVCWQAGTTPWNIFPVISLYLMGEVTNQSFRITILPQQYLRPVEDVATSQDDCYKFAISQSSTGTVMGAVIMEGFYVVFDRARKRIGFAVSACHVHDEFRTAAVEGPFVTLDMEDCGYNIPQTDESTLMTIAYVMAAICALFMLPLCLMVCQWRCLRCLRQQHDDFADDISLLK

| IC50 (Beta-secretase 1 [1]) [nM] | IC50 (Beta-secretase 1 [2]) [nM] | SMILES |
| --- | --- | --- |
| 8 | 2 | CCn1cc([C@]2(c3cccc(-c4cncc(C#N)c4)c3)N=C(N)c3c(F)cccc32)cc(C)c1=O |
| 6 | 4 | CC#Cc1cncc(-c2cccc([C@@]3(c4cc(C(F)F)c(=O)n(CC)c4)N=C(N)c4c(F)cccc43)c2)c1 |
| – | 2 | CC#Cc1ccnc(-c2cccc([C@@]3(c4cc(C)c(=O)n(CC)c4)N=C(N)c4c(F)cccc43)c2)c1 |
